In publication PMC7594070, “N-Alkylated Iminosugar Based Ligands: Synthesis and Inhibition of Human Lysosomal β-Glucocerebrosidase” (Molecules, 2020):
Like-named read-outs stand apart in the source and are kept apart here.

Assays:
[1] = biological target: GCase; settings: cited from earlier work
[2] = biological target: T1, β-glucosidase/β-galactosidase from Agrobacterium sp. (Abg, GH1) (Agrobacterium sp., UniProt P12614); test: Ki determination, Agrobacterium sp. β-glucosidase (Abg); format: biochemical; settings: pH 7, substrate pNP β-Gal, room temperature; read-out: Ki Abg (GH1) β-Glc/Gal
T1 sequence (P12614 1-459): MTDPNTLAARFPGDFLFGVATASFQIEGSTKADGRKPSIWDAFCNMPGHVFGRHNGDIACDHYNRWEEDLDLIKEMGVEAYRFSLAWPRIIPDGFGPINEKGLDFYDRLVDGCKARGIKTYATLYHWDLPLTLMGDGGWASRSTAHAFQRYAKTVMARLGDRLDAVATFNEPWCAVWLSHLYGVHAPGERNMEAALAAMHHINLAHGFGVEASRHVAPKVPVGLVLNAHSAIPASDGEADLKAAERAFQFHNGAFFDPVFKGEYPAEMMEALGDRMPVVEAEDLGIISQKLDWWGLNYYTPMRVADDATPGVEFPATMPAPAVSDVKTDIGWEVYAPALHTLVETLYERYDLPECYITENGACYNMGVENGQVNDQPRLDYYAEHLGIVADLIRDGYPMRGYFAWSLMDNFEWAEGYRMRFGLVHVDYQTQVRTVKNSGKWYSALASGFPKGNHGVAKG
Procedure: (§1) Kinetic studies were performed at room temperature in an appropriate buffer for each enzyme (specific conditions can be found below). All the reactions were performed in half-area 96-well-plates (Corning, Corning, NY, USA) and monitored with a Synergy H1 plate reader (BioTek Instruments, Winooski, VT, USA). In each experiment, the appropriate concentration of the enzyme was incubated with different concentrations of the inhibitors for 2–5 min before initiating the reaction by the addition of substrate. The initial rate was then measured by monitoring the increase in absorbance as a result of the release of 4-nitrophenol at 405 nm for up to five minutes. Ki determinations were performed using two different substrate concentrations. For each substrate concentration, a range of three to six inhibitor concentrations was used. Dixon plots (1/v vs. [I]) were constructed to validate the use of competitive inhibition model and to assess the fit of the data. The data were then fit to a competitive inhibition model using non-linear regression analysis with Grafit 7.0.3 (Erithacus Software, East Grinstead, UK).
Agrobacterium sp. β-glucosidase (Abg): [64, 65] 50 mM sodium phosphate buffer (pH 7).

[3] = biological target: lac Z β-galactosidase from E. coli (GH2) (Escherichia coli, UniProt P00722); test: Ki determination, E. coli lac Z β-galactosidase; format: biochemical; settings: pH 7, substrate pNP β-Gal, room temperature
Sequence of lac Z β-galactosidase from E. coli (GH2) (P00722 2-1024 limits assumed): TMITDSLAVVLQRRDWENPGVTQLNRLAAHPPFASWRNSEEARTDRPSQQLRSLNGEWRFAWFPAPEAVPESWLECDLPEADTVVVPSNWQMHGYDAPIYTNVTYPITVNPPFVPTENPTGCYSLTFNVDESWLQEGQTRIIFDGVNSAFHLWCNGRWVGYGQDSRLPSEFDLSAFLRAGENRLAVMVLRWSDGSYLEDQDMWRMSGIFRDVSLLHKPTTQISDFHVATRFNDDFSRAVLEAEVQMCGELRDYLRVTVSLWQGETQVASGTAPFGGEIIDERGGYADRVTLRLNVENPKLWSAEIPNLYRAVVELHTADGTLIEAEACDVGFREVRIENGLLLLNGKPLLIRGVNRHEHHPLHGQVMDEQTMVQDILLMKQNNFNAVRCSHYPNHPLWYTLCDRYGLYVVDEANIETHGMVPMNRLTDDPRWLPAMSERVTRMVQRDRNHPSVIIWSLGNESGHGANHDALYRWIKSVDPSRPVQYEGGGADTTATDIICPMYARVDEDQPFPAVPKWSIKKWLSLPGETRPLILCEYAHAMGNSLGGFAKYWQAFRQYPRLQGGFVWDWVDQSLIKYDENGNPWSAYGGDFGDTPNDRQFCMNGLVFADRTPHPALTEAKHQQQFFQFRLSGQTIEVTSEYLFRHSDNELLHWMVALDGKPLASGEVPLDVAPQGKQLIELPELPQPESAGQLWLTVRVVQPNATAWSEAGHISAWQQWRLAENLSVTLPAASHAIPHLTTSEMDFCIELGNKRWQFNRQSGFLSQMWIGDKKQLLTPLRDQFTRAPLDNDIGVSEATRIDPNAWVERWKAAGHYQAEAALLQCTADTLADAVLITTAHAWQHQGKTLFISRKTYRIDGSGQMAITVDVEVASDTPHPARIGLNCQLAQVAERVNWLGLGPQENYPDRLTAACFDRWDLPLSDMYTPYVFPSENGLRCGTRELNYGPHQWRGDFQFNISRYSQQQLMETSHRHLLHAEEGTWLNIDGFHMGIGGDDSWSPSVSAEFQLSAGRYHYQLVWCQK
Procedure: as §1
E. coli lac z β-galactosidase: 50 mM sodium phosphate, 1.0 mM MgCl2 (pH 7). Substrate: pNP β-Gal, Km = 60 µM.

[4] = biological target: T2, Fabrazyme = commercial recombinant human lysosomal α-galactosidase (GH27) (Homo sapiens, UniProt P06280); test: Ki determination, Fabrazyme (acid α-galactosidase); format: biochemical; settings: pH 5.5, substrate 2,4-DNP α-Gal, room temperature
T2 construct: purchased Fabrazyme
T2 sequence (P06280 32-429): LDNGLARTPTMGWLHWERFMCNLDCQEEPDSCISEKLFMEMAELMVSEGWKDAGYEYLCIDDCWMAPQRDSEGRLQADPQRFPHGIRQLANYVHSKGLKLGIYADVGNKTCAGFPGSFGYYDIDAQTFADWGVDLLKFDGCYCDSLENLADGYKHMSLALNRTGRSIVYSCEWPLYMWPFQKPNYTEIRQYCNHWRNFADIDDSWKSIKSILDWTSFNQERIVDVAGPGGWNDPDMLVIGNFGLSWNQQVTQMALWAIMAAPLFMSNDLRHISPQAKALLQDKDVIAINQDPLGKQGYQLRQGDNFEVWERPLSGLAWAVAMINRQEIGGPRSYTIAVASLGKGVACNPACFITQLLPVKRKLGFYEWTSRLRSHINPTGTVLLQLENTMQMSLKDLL
Procedure: as §1, with “The initial rate was then measured by monitoring the increase in absorbance as a result of the release of 4-nitrophenol at 405 nm for up to five minutes.” left out
Fabrazyme (Acid α-galactosidase): 20 mM sodium citrate, 50 mM sodium phosphate, 1.0 mM tetrasodium EDTA, 0.25% v/v Triton X-100® and 0.25% w/v taurocholic acid buffer (pH 5.5).

[5] = biological target: α-glucosidase from Saccharomyces cerevisiae (GH13); test: Ki determination, S. cerevisiae α-glucosidase; format: biochemical; settings: pH 7.0, substrate pNP α-Glc, room temperature; read-out: Ki S. cer. (GH13) α-Glc
Procedure: as §1
S. cerevisiae α-Glucosidase: 50 mM sodium phosphate buffer (pH 7.0). Substrate: pNP α-Glc, Km = 0.75 mM.

[6] = biological target: T3, recombinant human lysosomal β-glucocerebrosidase (GCase, GH30) (Homo sapiens, UniProt P04062); test: Ki determination, GCase (β-glucocerebrosidase); format: biochemical
T3 sequence (P04062 40-536): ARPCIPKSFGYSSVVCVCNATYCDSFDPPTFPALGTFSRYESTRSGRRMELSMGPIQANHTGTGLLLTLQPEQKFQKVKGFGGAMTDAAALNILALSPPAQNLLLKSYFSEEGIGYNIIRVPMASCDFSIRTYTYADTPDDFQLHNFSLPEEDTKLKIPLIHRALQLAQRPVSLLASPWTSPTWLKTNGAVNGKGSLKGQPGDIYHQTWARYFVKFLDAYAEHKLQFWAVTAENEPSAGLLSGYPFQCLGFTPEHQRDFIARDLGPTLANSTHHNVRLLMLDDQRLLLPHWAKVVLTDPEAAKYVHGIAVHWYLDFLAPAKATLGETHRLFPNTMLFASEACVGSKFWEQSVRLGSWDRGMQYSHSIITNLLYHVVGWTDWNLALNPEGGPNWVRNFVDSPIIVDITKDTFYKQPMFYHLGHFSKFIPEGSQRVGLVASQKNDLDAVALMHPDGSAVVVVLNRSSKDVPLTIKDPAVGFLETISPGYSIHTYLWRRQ
Procedure: as §1
GCase (β-glucocerebrosidase): 20 mM sodium citrate, 50 mM sodium phosphate, 1.0 mM tetrasodium EDTA, 0.25% v/v Triton X-100® and 0.25% w/v taurocholic acid buffer (pH 7). Substrate: 2,4-DNP β-Glc, Km = 2.7 mM.

[7] = pH 7, substrate 2,4-DNP β-Glc, room temperature, read-out: Ki GCase (GH30) β-Glc
[8] = values repeated in running text, read-out: Ki for GCase

SMILES | Ki ([1]; read-out: Ki GCase) [µM] | Ki ([1]; read-out: Ki GCase inhibition, multivalent iminosugars) [µM] | Ki [2] [µM] | Ki [3] [µM] | Ki [4] [µM] | Ki [5] [µM] | Ki [6, 7] [µM] | Ki [6, 8] [µM]
CC[C@@H]1[C@H](O)[C@@H](O)[C@H](O)CN1CCCCCC(=O)NCCc1c[nH]cn1 [Compound 20] | 4.1 | – | – | – | – | – | – | –
OC[C@@H]1[C@@H](O)[C@H](O)[C@@H](O)CN1CCCCCCCCCn1cc(COCC(COCc2cn(CCCCCCCCCN3C[C@H](O)[C@@H](O)[C@H](O)[C@H]3CO)nn2)(COCc2cn(CCCCCCCCCN3C[C@H](O)[C@@H](O)[C@H](O)[C@H]3CO)nn2)COCc2cn(CCCCCCCCCN3C[C@H](O)[C@@H](O)[C@H](O)[C@H]3CO)nn2)nn1 [Compound 17] | – | 0.055 | – | – | – | – | – | –
CC[C@@H]1[C@H](O)[C@@H](O)[C@H](O)CN1CCCCCC(=O)OC [Compound 19] | 57 | – | – | – | – | – | – | –
N#CCCCCCOc1ccc(C(=O)OCCCCCCN2C[C@H](O)[C@@H](O)[C@H](O)[C@H]2CO)cc1 [Compound 45, N-(6-((4-((5-Cyanopentyl)oxy)benzoyl)oxy)hexyl)-1,5-dideoxy-1,5-imino-D-glucitol] | – | – | 1.31 | > 1000 | > 1000 | 23.7 | 0.28 | –
CN(C)c1cccc2c(S(=O)(=O)NCCc3ccc(C(=O)OCCCCCCN4C[C@H](O)[C@@H](O)[C@H](O)[C@H]4CO)cc3)cccc12 [Compound 55, N-(6-((4-(2-(Dansylamino)ethyl)benzoyl)oxy)hexyl)-1,5-dideoxy-1,5-imino-D-glucitol] | – | – | 0.06 | 89 | > 1000 | 8.7 | – | 0.018
O=C(NCCc1ccc(C(=O)OCCCCCCN2C[C@@H](O)[C@H](O)[C@@H](O)C2)cc1)OCc1ccccc1 [Compound 54, N-(6-((4-(2-(((Benzyloxy)carbonyl)amino)ethyl)benzoyl)oxy)hexyl)-1,5-dideoxy-1,5-imino-D-xylitol] | – | – | 0.58 | > 1000 | > 1000 | > 1000 | 0.31 | –
O=C(OCCCCCCN1C[C@H](O)[C@@H](O)[C@H](O)[C@H]1CO)c1ccc(OCCOCCOC(C(F)(F)F)(C(F)(F)F)C(F)(F)F)cc1 [Compound 49, N-(6-((4-(2-(2-(Nonafluoro-tert-butyloxy)ethoxy)ethoxy)benzoyl)oxy)hexyl)-1,5-dideoxy-1,5-imino-D-glucitol] | – | – | 3.6 | > 1000 | > 1000 | > 1000 | 0.35 | –
O=C(NCCc1ccc(C(=O)OCCCCCCN2C[C@H](O)[C@@H](O)[C@H](O)[C@H]2CO)cc1)OCc1ccccc1 [Compound 53, N-(6-((4-(2-(((Benzyloxy)carbonyl)amino)ethyl)benzoyl)oxy)hexyl)-1,5-dideoxy-1,5-imino-D-glucitol] | – | – | 0.06 | 424 | > 1000 | 8.1 | – | 0.022
[N-]=[N+]=NCCOCCOc1ccc(C(=O)OCCCCCCN2C[C@H](O)[C@@H](O)[C@H](O)[C@H]2CO)cc1 [Compound 47, N-(6-((4-(2-(2-Azidoethoxy)ethoxy)benzoyl)oxy)hexyl)-1,5-dideoxy-1,5-imino-D-glucitol] | – | – | 1.7 | > 1000 | > 1000 | 221 | 0.09 | –
C#CCOc1ccc(C(=O)OCCCCCCN2C[C@H](O)[C@@H](O)[C@H](O)[C@H]2CO)cc1 [Compound 51, N-(6-((4-(Propargyloxy)benzoyl)oxy)hexyl)-1,5-dideoxy-1,5-imino-D-glucitol] | – | – | 0.0022 | > 1000 | > 1000 | 4.9 | 0.37 | –
[N-]=[N+]=NCCOCCOc1ccc(C(=O)OCCCCCCN2C[C@@H](O)[C@H](O)[C@@H](O)C2)cc1 [Compound 48, N-(6-((4-(2-(2-Azidoethoxy)ethoxy)benzoyl)oxy)hexyl)-1,5-dideoxy-1,5-imino-D-xylitol] | – | – | 32.6 | > 1000 | > 1000 | > 1000 | 1.4 | –
N#CCCCCCOc1ccc(C(=O)OCCCCCCN2C[C@@H](O)[C@H](O)[C@@H](O)C2)cc1 [Compound 46, N-(6-((4-((5-Cyanopentyl)oxy)benzoyl)oxy)hexyl)-1,5-dideoxy-1,5-imino-D-xylitol] | – | – | 12.1 | > 1000 | > 1000 | > 1000 | 0.62 | –
O=C(OCCCCCCN1C[C@@H](O)[C@H](O)[C@@H](O)C1)c1ccc(OCCOCCOC(C(F)(F)F)(C(F)(F)F)C(F)(F)F)cc1 [Compound 50, N-(6-((4-(2-(2-(Nonafluoro-tert-butyloxy)ethoxy)ethoxy)benzoyl)oxy)hexyl)-1,5-dideoxy-1,5-imino-D-xylitol] | – | – | 23.7 | 255 | > 1000 | > 1000 | 0.4 | –
C#CCOc1ccc(C(=O)OCCCCCCN2C[C@@H](O)[C@H](O)[C@@H](O)C2)cc1 [Compound 52, N-(6-((4-(Propargyloxy)benzoyl)oxy)hexyl)-1,5-dideoxy-1,5-imino-D-xylitol] | – | – | – | > 1000 | > 1000 | 267 | 0.74 | –
CN(C)c1cccc2c(S(=O)(=O)NCCc3ccc(C(=O)OCCCCCCN4C[C@@H](O)[C@H](O)[C@@H](O)C4)cc3)cccc12 [Compound 56, N-(6-((4-(2-(Dansylamino)ethyl)benzoyl)oxy)hexyl)-1,5-dideoxy-1,5-imino-D-xylitol] | – | – | 0.76 | 198 | > 1000 | > 1000 | – | –
